Experimental data: PubChem BioAssay AID330 (DTP/NCI, 2004)
“And” between values parts separate entries of the source, which are not always exact repeats. Equal entries are not always repeated. Inconclusive results and toxic doses are left out.

Test system: P388 leukemia ip, CD2F1 mice, survival T/C
Experiment: NCI In Vivo Anticancer Drug Screen. Data for tumor model P388 Leukemia (intraperitoneal) in CD2F1 (CDF1) mice
Details: endpoint: median survival time, higher = longer survival
Method in brief: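 Mice carrying the transplanted tumor received test compound or vehicle. Survival was recorded in each group, and the value is the treated-group measurement divided by that of the vehicle-treated control group.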

[1] = dose: 50.0 mg/kg/injection, schedule: Q01DX005 (ip), vehicle: Klucel (hydroxypropylcellulose) (HPC)
[2] = dose: 100.0 mg/kg/injection, schedule: Q01DX005 (ip), vehicle: Klucel (hydroxypropylcellulose) (HPC)
[3] = dose: 200.0 mg/kg/injection, schedule: Q01DX005 (ip), vehicle: Klucel (hydroxypropylcellulose) (HPC)
[4] = dose: 100.0 mg/kg/injection, schedule: Q04DX003 (ip), vehicle: saline with Tween-80
[5] = dose: 200.0 mg/kg/injection, schedule: Q04DX003 (ip), vehicle: saline with Tween-80
[6] = dose: 400.0 mg/kg/injection, schedule: Q04DX003 (ip), vehicle: saline with Tween-80
[7] = dose: 60.0 mg/kg/injection, schedule: Q01DX005 (ip), vehicle: Klucel (hydroxypropylcellulose) (HPC)
[8] = dose: 120.0 mg/kg/injection, schedule: Q01DX005 (ip), vehicle: Klucel (hydroxypropylcellulose) (HPC)
[9] = dose: 240.0 mg/kg/injection, schedule: Q01DX005 (ip), vehicle: Klucel (hydroxypropylcellulose) (HPC)

CN1C2CCC1CC(Cl)C2 (stereo not given)
T/C (dose: 6.0 mg/kg/injection, schedule: Q01DX005 (ip), vehicle: saline): 107 % of control | T/C (dose: 7.5 mg/kg/injection, schedule: Q01DX005 (ip), vehicle: saline): 91 % of control | T/C (dose: 12.0 mg/kg/injection, schedule: Q01DX005 (ip), vehicle: saline): 107 % of control | T/C (dose: 15.0 mg/kg/injection, schedule: Q01DX005 (ip), vehicle: saline): 99 % of control | T/C (dose: 25.0 mg/kg/injection, schedule: Q01DX005 (ip), vehicle: saline): 102 % of control | T/C (dose: 30.0 mg/kg/injection, schedule: Q01DX005 (ip), vehicle: saline): 99 % of control

CC(=O)Nc1nc(Cl)c2ncn(C3CC(OC(=O)c4ccc(C)cc4)C(COC(=O)c4ccc(C)cc4)O3)c2n1 (stereo not given)
T/C (dose: 12.5 mg/kg/injection, schedule: Q01DX005 (ip), vehicle: Klucel (hydroxypropylcellulose) (HPC)): 97 % of control | T/C (dose: 25.0 mg/kg/injection, schedule: Q01DX005 (ip), vehicle: Klucel (hydroxypropylcellulose) (HPC)): 90 % of control | T/C [1]: 97 % of control and 100 % of control | T/C [2]: 95 % of control and 98 % of control | T/C [3]: 97 % of control and 103 % of control

c1ccc(Cn2nnnc2-c2ccccc2)cc1
T/C [4]: 100 % of control | T/C [5]: 96 % of control | T/C [6]: 88 % of control

COP(=O)(OC)/C(=N\NS(=O)(=O)c1ccc(C)cc1)c1ccccc1
T/C (dose: 50.0 mg/kg/injection, schedule: Q01DX009 (ip), vehicle: saline with Tween-80): 100 % of control | T/C (dose: 100.0 mg/kg/injection, schedule: Q01DX009 (ip), vehicle: saline with Tween-80): 103 % of control | T/C (dose: 200.0 mg/kg/injection, schedule: Q01DX009 (ip), vehicle: saline with Tween-80): 117 % of control | T/C (dose: 400.0 mg/kg/injection, schedule: Q01DX009 (ip), vehicle: saline with Tween-80): 119 % of control

Cc1ccc(CSCC(NC(=O)OC(C)(C)C)C(=O)O)cc1 (stereo not given)
T/C [1]: 104 % of control | T/C [2]: 97 % of control | T/C [3]: 92 % of control

CN(C)c1nc(=O)c(-c2ccccc2)c(-c2ccccc2)o1
T/C (dose: 100.0 mg/kg/injection, schedule: Q04DX002 (ip), vehicle: Klucel (hydroxypropylcellulose) (HPC)): 103 % of control | T/C (dose: 200.0 mg/kg/injection, schedule: Q04DX002 (ip), vehicle: Klucel (hydroxypropylcellulose) (HPC)): 106 % of control | T/C (dose: 400.0 mg/kg/injection, schedule: Q04DX002 (ip), vehicle: Klucel (hydroxypropylcellulose) (HPC)): 103 % of control

O=S1(=O)C=C(Br)CO1
T/C [4]: 106 % of control | T/C [5]: 106 % of control | T/C [6]: 97 % of control

O=S1(=O)NC(=NC2CCCCC2)c2ccccc21
T/C (dose: 50.0 mg/kg/injection, schedule: Q01DX005 (ip), vehicle: saline with Tween-80): 105 % of control | T/C (dose: 100.0 mg/kg/injection, schedule: Q01DX005 (ip), vehicle: saline with Tween-80): 105 % of control | T/C (dose: 200.0 mg/kg/injection, schedule: Q01DX005 (ip), vehicle: saline with Tween-80): 99 % of control

CCC1(O)C(=O)c2ccccc2N(c2ccccc2)C1=O (stereo not given)
T/C [7]: 91 % of control | T/C [8]: 90 % of control | T/C [9]: 90 % of control

C=COC(=O)C(C)(CC)CC(C)C (stereo not given)
T/C (dose: 50.0 mg/kg/injection, schedule: Q01DX009 (ip), vehicle: other): 115 % of control | T/C (dose: 100.0 mg/kg/injection, schedule: Q01DX009 (ip), vehicle: other): 108 % of control

CCCCc1c[nH]n(C(N)=NCCSCc2nc[nH]c2C)c1=O
T/C [7]: 94 % of control | T/C [8]: 98 % of control | T/C [9]: 93 % of control

COc1c2c(cc3oc(=O)ccc13)OC(C)(C)C=C2
T/C (dose: 12.0 mg/kg/injection, schedule: Q01DX005 (ip), vehicle: saline with Tween-80): 107 % of control | T/C (dose: 24.0 mg/kg/injection, schedule: Q01DX005 (ip), vehicle: saline with Tween-80): 98 % of control | T/C (dose: 48.0 mg/kg/injection, schedule: Q01DX005 (ip), vehicle: saline with Tween-80): 105 % of control | T/C (dose: 96.0 mg/kg/injection, schedule: Q01DX005 (ip), vehicle: saline with Tween-80): 100 % of control

CC1(C)N=C(N)N=C(N)N1c1ccc(CCCCc2ccc(Cl)cc2Cl)cc1
T/C (dose: 3.13 mg/kg/injection, schedule: Q01DX009 (ip), vehicle: saline with Tween-80): 118 % of control | T/C (dose: 12.5 mg/kg/injection, schedule: Q01DX009 (ip), vehicle: saline with Tween-80): 122 % of control

O=C(NC[N+]12CCO[B-]1(c1ccc(Cl)cc1)OCC2)c1ccccc1O (stereo not given)
T/C [1]: 106 % of control | T/C [2]: 98 % of control | T/C [3]: 103 % of control

CC1(C)N=C(N)N=C(N)N1c1ccc(OCc2ccc(C(=O)Nc3cccc(S(=O)(=O)F)c3)cc2)c(Cl)c1
T/C (dose: 50.0 mg/kg/injection, schedule: Q04DX003 (ip), vehicle: saline): 181 % of control | T/C (dose: 100.0 mg/kg/injection, schedule: Q04DX003 (ip), vehicle: saline): 86 % of control

[O]=[Mo](=[O])=[O]
T/C (dose: 60.0 mg/kg/injection, schedule: Q01DX005 (ip), vehicle: saline): 100 % of control | T/C (dose: 120.0 mg/kg/injection, schedule: Q01DX005 (ip), vehicle: saline): 110 % of control | T/C (dose: 240.0 mg/kg/injection, schedule: Q01DX005 (ip), vehicle: saline): 115 % of control

C=C1C(=O)OC2C/C(C=O)=C/CC/C(C)=C/C(O)C12 (stereo not given)
T/C (dose: 9.0 mg/kg/injection, schedule: Q01DX005 (ip), vehicle: Klucel (hydroxypropylcellulose) (HPC)): 96 % of control | T/C (dose: 18.0 mg/kg/injection, schedule: Q01DX005 (ip), vehicle: Klucel (hydroxypropylcellulose) (HPC)): 99 % of control | T/C (dose: 36.0 mg/kg/injection, schedule: Q01DX005 (ip), vehicle: Klucel (hydroxypropylcellulose) (HPC)): 105 % of control | T/C (dose: 72.0 mg/kg/injection, schedule: Q01DX005 (ip), vehicle: Klucel (hydroxypropylcellulose) (HPC)): 106 % of control

O=c1[nH]c(=O)c2ccccc2o1
T/C (dose: 6.25 mg/kg/injection, schedule: Q01DX009 (ip), vehicle: Klucel (hydroxypropylcellulose) (HPC)): 104 % of control | T/C (dose: 12.5 mg/kg/injection, schedule: Q01DX009 (ip), vehicle: Klucel (hydroxypropylcellulose) (HPC)): 111 % of control | T/C (dose: 25.0 mg/kg/injection, schedule: Q01DX009 (ip), vehicle: Klucel (hydroxypropylcellulose) (HPC)): 110 % of control | T/C (dose: 50.0 mg/kg/injection, schedule: Q01DX009 (ip), vehicle: Klucel (hydroxypropylcellulose) (HPC)): 106 % of control

CC(=O)NCCc1nc(-c2nc(C(=O)NCCC[S+](C)C)cs2)cs1
T/C (dose: 1.56 mg/kg/injection, schedule: Q01DX005 (ip), vehicle: saline with Tween-80): 107 % of control | T/C (dose: 3.13 mg/kg/injection, schedule: Q01DX005 (ip), vehicle: saline with Tween-80): 107 % of control | T/C (dose: 6.25 mg/kg/injection, schedule: Q01DX005 (ip), vehicle: saline with Tween-80): 100 % of control and 105 % of control | T/C (dose: 25.0 mg/kg/injection, schedule: Q01DX005 (ip), vehicle: saline with Tween-80): 96 % of control

CNC(=O)NC(c1cc(OC)c(O)c(OC)c1)c1cc2c(cc1O)OCO2 (stereo not given)
T/C [7]: 95 % of control | T/C [8]: 94 % of control | T/C [9]: 87 % of control

CNc1nnnn1C
T/C (dose: 50.0 mg/kg/injection, schedule: Q01DX005 (ip), vehicle: saline): 98 % of control | T/C (dose: 100.0 mg/kg/injection, schedule: Q01DX005 (ip), vehicle: saline): 98 % of control | T/C (dose: 200.0 mg/kg/injection, schedule: Q01DX005 (ip), vehicle: saline): 98 % of control

COc1cc2c3cc1Oc1c(OC)c(OC)cc4c1[C@@H](Cc1ccc(OC)c(c1OC)Oc1ccc(cc1)C[C@@H]3N(C)CC2)N(C)CC4
T/C (dose: 3.63 mg/kg/injection, schedule: Q01DX005 (ip), vehicle: Klucel (hydroxypropylcellulose) (HPC)): 103 % of control | T/C (dose: 7.25 mg/kg/injection, schedule: Q01DX005 (ip), vehicle: Klucel (hydroxypropylcellulose) (HPC)): 99 % of control | T/C (dose: 14.5 mg/kg/injection, schedule: Q01DX005 (ip), vehicle: Klucel (hydroxypropylcellulose) (HPC)): 102 % of control | T/C (dose: 29.0 mg/kg/injection, schedule: Q01DX005 (ip), vehicle: Klucel (hydroxypropylcellulose) (HPC)): 93 % of control | T/C (dose: 58.0 mg/kg/injection, schedule: Q01DX005 (ip), vehicle: Klucel (hydroxypropylcellulose) (HPC)): 109 % of control

O=C(O)c1cc(OCc2ccccc2)cc(OCc2ccccc2)c1
T/C (dose: 60.0 mg/kg/injection, schedule: Q01DX005 (ip), vehicle: saline with Tween-80): 96 % of control | T/C (dose: 120.0 mg/kg/injection, schedule: Q01DX005 (ip), vehicle: saline with Tween-80): 102 % of control | T/C (dose: 240.0 mg/kg/injection, schedule: Q01DX005 (ip), vehicle: saline with Tween-80): 106 % of control

COC(=O)c1cn[nH]c1CC#N
T/C (dose: 100.0 mg/kg/injection, schedule: Q04DX002 (ip), vehicle: saline with Tween-80): 92 % of control | T/C (dose: 200.0 mg/kg/injection, schedule: Q04DX002 (ip), vehicle: saline with Tween-80): 100 % of control
